Test results taken from patent publication US20240075000A1 (priority 2021, published 2024).

How the values were obtained:
[1] = system: resistance-trained adults; conditions: in vivo; cited from earlier work
fetus = conditions: in vivo; cited from earlier work
[2] = system: patients with post-COVID-19 fatigue; assay: clinical trial in Long Haul post-COVID-19 fatigue; conditions: oral 500 mg BID, 6 weeks
Protocol: Fatigue is assessed by the Chalder Fatigue Scale, the Fatigue Severity Scale, and PROMIS-Fatigue-Short Form 7a. Scores are summarized as means and standard deviations and confidence intervals will be calculated. Changes are also summarized as effect sizes. […] All patients provided written informed consent to participate in the study prior to being screened.
18 patients who suffered from “Long Haul” post-COVID-19 fatigue for an average of 6 months were recruited to a clinical trial.

LD50 toxicity = conditions: in vivo
Protocol: The dose ratio between toxic and therapeutic effects is the therapeutic index and it can be expressed as the ratio LD50/ED50. […] The “no observable adverse effects level” (NOAEL) in a 90-day sub-chronic rat study was 500 mg/kg (the highest dose in the test).

cancer patients = assay: cancer patient fatigue case reports (Examples 13-17); assay type: in vivo, human
From the text: A cancer patient with recurrent stage 4 glioblastoma multiforme encountered significant fatigue as part of the ongoing disease.
A cancer patient with Stage 2 primary prostate cancer experienced significant fatigue. […] The patient has been able to eliminate pathological fatigue for 4 years now and is continuing the dosage.
A cancer patient with stage 4 primary hepatocellular carcinoma experienced significant fatigue, and due to cancer progression, was placed in hospice.
A cancer patient with stage 4 breast cancer experienced pathological fatigue.
A cancer patient with stage 3 colon cancer experienced pathological fatigue. […] The patient continued to be fatigue-free and went into cancer remission, which was also fatigue free.

[3] = system: patient with Alzheimer's disease; assay: Alzheimer's disease patient fatigue case; assay type: in vivo, human; conditions: caregiver testimonial
From the text: A patient with Alzheimer's disease experienced significant muscle and mental fatigue. […] The testimonial is shown below.

[4] = system: patient diagnosed with Fibromyalgia; assay: Fibromyalgia patient fatigue case; assay type: in vivo, human
From the text: A patient diagnosed with Fibromyalgia had significant fatigue. […] They increased their dosage to 6 capsules per day and has seen more than a 50% improvement in their fatigue.

Parkinson's patients = assay: double blinded placebo-controlled trial in Parkinson's patients, MDS-UPDRS fatigue question 1.13; assay type: in vivo, human; conditions: 2 capsules benaGene (100 mg oxaloacetate/150 mg ascorbic acid) per day, 4 months, P value<0.05, 13 patients
Protocol: As used herein, the term “MDS-UPDRS” refers to the “Movement Disorder Society-Sponsored Revision of the United Parkinson's Disease Rating Scale” (Goetz et al, Movement Disorder Society-Sponsored Revision of the United Parkinson's Disease Rating Scale (MDS-UPDRS): Scale Presentation and Clinimetric Testing Results, Movement Disorders Vol. 23, No. 15, 2008, pp. 2129-2170).
Based on the findings of the Inventor, a clinical trial was performed on Parkinson's Disease patients. The trial used the MDS-UPDRS (Goetz et al, Movement Disorder Society-Sponsored Revision of the United Parkinson's Disease Rating Scale (MDS-UPDRS): Scale Presentation and Clinimetric Testing Results, Movement Disorders Vol. 23, No. 15, 2008, pp. 2129-2170) (45) as a validated method to clinically measure pathological fatigue in Parkinson's patients. The Fatigue question is as follows: • 1.13 Fatigue • Over the past week, have you usually felt fatigued? This feeling is not part of being sleepy or sad • 0: Normal: No fatigue • 1: Slight: Fatigue occurs.

[5] = system: mitochondrial production and density; conditions: cited from earlier work
cancer cells = conditions: glioblastoma; cited from earlier work
pneumonia patient = assay: fatigue after pneumonia, patient testimonial; assay type: in vivo, human; conditions: 500 mg daily
From the text: The Inventor has supplied Anhydrous Enol-Oxaloacetate for fatigue after pneumonia. Pneumonia patients often suffer from physiological fatigue. In a retrospective study of 506 adults with clinical and radiographic evidence of pneumonia, […] of the patients suffered from fatigue at 90 days after diagnosis. (Metlay J P, Fine M J, Schulz R, Marrie T J, Coley C M, Kapoor W N, et al. Measuring symptomatic and functional recovery in patients with community-acquired pneumonia. J Gen Intern Med. 1997; 12(7):423-30). […] The place where oxaloacetate made the most significant difference for me was in alleviation of the crushing fatigue that accompanied the pneumonia. […] On querying nurses and physical therapists about this response, the universal answer was that it was “typical.” Speaking with people who had had pneumonia at different ages—granted that this is anecdotal—garnered consistent stories of extreme fatigue and a slow recovery that took years to achieve prior energy levels even with people who had been physically active teenagers at the time. • I was in the hospital for 2 weeks and then in skilled care for about 6 weeks, putting me in the 40% of the population that don't manage to avoid hospitalization. […]

[6] = system: post-COVID-19 fatigue patient; assay: post-COVID-19 fatigue case, physician (Example 3); conditions: 500 mg BID
Mouse Soleus Muscle = conditions: normal cells, fatigue stimulated by electrical current applied to the muscle; cited from earlier work
glucose uptake = conditions: diabetic patients and Alzheimer's patients; cited from earlier work
ALS patient = ALS patient on long-term supplementation; assay type: in vivo, human; conditions: 3,000 mg daily, after 8 months
From the text: For ALS, this is surprising and welcome news as the anticipated decline rate for this period of time ranges from 12% to 43% as measured by the ALS FRS. (Ong M L, Tan P F, Holbrook J D. Predicting functional decline and survival in amyotrophic lateral sclerosis. PLoS One. 2017; 12(4):e0174925. Published 2017 Apr. 13. doi:10.1371/journal.pone.0174925).
The patient's email: • “Dear Alan, Good afternoon. […] We are thrilled! Could we please have some more medicine? Thanks!”

patients with ME/CFS = assay: clinical trial in ME/CFS, three dosage levels; assay type: in vivo, human

Cn1c(=O)c2c(ncn2C)n(C)c1=O [Caffeine]
effects on muscular performance [1]: minimal effects on muscular performance

NC(=O)C[S+]([O-])C(c1ccccc1)c1ccccc1 (centres unmarked) [Modafinil]
animal reproduction studies, finding (fetus): adverse effect on the fetus

CC(N)Cc1ccccc1 (centres unmarked) [amphetamine]
animal reproduction studies, finding (fetus): adverse effect on the fetus

C[C@H](N)Cc1ccccc1 [dextroamphetamine]
animal reproduction studies, finding (fetus): adverse effect on the fetus

COC(=O)C(c1ccccc1)C1CCCCN1 (centres unmarked) [methylphenidate]
animal reproduction studies, finding (fetus): adverse effect on the fetus

O=C(O)CC(=O)C(=O)O [oxaloacetate, 2-oxobutanedioic Acid]
adverse events during the trial [2]: no significant adverse events | reduction in fatigue compared to baseline, PROMIS Fatigue Short Form 7a ([2]; 18 patients, P<0.005): 21% | reduction in fatigue from baseline, Fatigue Severity Scale ([2]; 18 patients, P<0.005): 15% | reduction of fatigue from baseline, Chalder Fatigue Scale ([2]; 18 patients, P<0.005): 45% | reduction, Visual Analogue Fatigue Scale ([2]; 18 patients, P<0.05): 56% | LD50 (LD50 toxicity): above 5 g/kg of body weight | pathological fatigue (cancer patients; Stage 2 primary prostate cancer, 1,000 mg daily, 4 years): ameliorated | adverse events (cancer patients; glioblastoma patient, 6,000 mg daily for one year): without any significant adverse events | side effects (cancer patients; hepatocellular carcinoma patient, 3,000 mg per day for 10 months): without side effects | side effects (cancer patients; prostate cancer patient, 1,000 mg daily): No side effects | fatigue associated with the cancer (cancer patients; recurrent stage 4 glioblastoma multiforme, 6,000 mg daily): ameliorated | fatigue (cancer patients; stage 3 colon cancer, 1,000 mg per day (500 mg BID)): significant reduction in fatigue | fatigue (cancer patients; stage 4 breast cancer, 1,000 mg per day, after 3 days): significant reduction in fatigue | fatigue (cancer patients; stage 4 primary hepatocellular carcinoma, 3,000 mg per day): significant reduction in fatigue | mental and physical pathological fatigue [3]: significantly reduces mental and physical pathological fatigue | fatigue ([4]; 2 capsules of 100 mg per day): improvement | improvement in fatigue ([4]; 6 capsules of 100 mg per day): > 50% | improvement of MDS-UPDRS fatigue score over baseline (Parkinson's patients): 28.7% | mitochondrial production and density [5]: increased mitochondrial production and density | glycolysis and formation of lactate (cancer cells): reducing both glycolysis and the formation of lactate | fatigue after Pneumonia (pneumonia patient): rapid resolution of fatigue | side effect reported by the patient [6]: nausea | muscle endurance and muscle fatigue (Mouse Soleus Muscle): increase muscle endurance and reduce muscle fatigue | glucose uptake (glucose uptake): increase glucose uptake | function, fatigue/muscle function (ALS patient): no decline in function | reduction from baseline fatigue, Chalder Fatigue Scale (patients with ME/CFS; 500 mg BID, 2 weeks, N=22): 15.3% | reduction in fatigue, Chalder Fatigue Scale (patients with ME/CFS; 500 mg BID, 6-weeks, N=22): 21.9% | reduction in fatigue, Chalder Fatigue Scale (patients with ME/CFS; 1,000 mg BID, 6-weeks, N=25): 30.2% | reduction in fatigue, Chalder Fatigue Scale (patients with ME/CFS; 1,000 mg TID, 2 weeks, N=22): 17.5% | severe Adverse Effects recorded in the study (patients with ME/CFS; 69 patients, all dosage levels): no severe Adverse Effects | patients in the study improved over historical placebo (patients with ME/CFS; historical placebo effect 5.9%): 76.8% | patients who experienced insomnia (patients with ME/CFS; of 69, resolved by moving dosing to breakfast and lunch): 1 patient | patients who experienced dyspepsia (patients with ME/CFS; of 69, resolved by taking with food): 4 patients
